# According to US5455251A, “Michellamine antiviral agents, compositions, and treatment methods” (The United States of America as represented by the …, priority 1993, dated 1995):
# Entries after “also recorded” stand apart in the source; their conditions may differ. Where two headings read alike, the source gives them in different places.
# Tests used:
# [1] = Variable temperature NMR for spontaneous interconversion of atropisomers; format: physicochemical
# From the text: Michellamine C appears to have the opposite configuration from michellamine A about the C-5/C-8' and C-5"'/C-8" bonds.
# uninfected CEM-SS cells = assay: Direct cytotoxicity to uninfected CEM-SS target cells (XTT/BCECF), 6 days; format: cell-based, human; conditions: acetate salts, XTT assay, Table 4
# Protocol: (§1) A battery of interrelated assays on individual wells from 96-well microtiter plates was performed to show antiviral activity. Measurements of cellular viability, in the presence and absence of the compounds in uninfected and virus-infected cells, by an adaptation of the procedure set forth in Weislow et al., J. Natl. Cancer Inst., 81, 577-586 (1989), as well as by an adaptation of a method using the fluorescent probe 2'-7'-biscar-boxyethyl-5(6)-carboxyfluorescein acetoxymethyl ester (BCECF) as set forth in Rink et al., J. Cell Biol., 95, 189-196 (1982), were performed as described herein below. BCECF is a nonfluorescent molecule which readily enters viable cells where it is hydrolyzed by cellular esterases to a fluorescent molecule. Total cellular DNA content was measured with the dye, 2-diamidino-phenylindole (DAPI), which fluoresces when intercalated at A-T specific sites in chromatin, according to the procedure set forth in McCaffrey et al., In Vitro Cell. Develop. Biol., 24, 247-252 (1988). These dyes are used in combination with Particle Concentration Fluorescent Immunoassay technology (PCFIA), specifically the Screen Machine™ available from Baxter Healthcare Corporation (Mundelein, Ill.). The Screen Machine is a semiautomated fluorescent plate reader capable of adding reagents and/or wash buffers to filter-bottomed, 96-well plates with the subsequent evacuation of fluid and concentration of fluorescently-stained cells on the cellulose acetate filter. Fluorescence is detected via epifluorescence. […]
# (§2) The appropriate amounts of the pure compounds for anti-HIV evaluations were dissolved in 100% dimethylsulfoxide (DMSO) and then diluted in complete medium to the desired initial concentration (with final DMSO content not exceeding 1%). […] Subsequently, aliquots of cell-free supernatant were removed from each well using the Biomek, and analyzed for reverse transcriptase activity, p24 antigen production, and synthesis of infectious virions (see further below). […]
# HIV-1 [2] = assay: Cytoprotection of HIV-1-infected CEM-SS cells, viability by XTT and/or BCECF, 6 days; format: cell-based; conditions: acetate salts, XTT assay, HIV-1, side-by-side comparison (Table 4), read-out: EC50 (anti-HIV-1 activity)
# Protocol: as §1, §2
# HIV-2 [3] = assay: Anti-HIV-2 (CBL20 strain) activity in CEM-SS cells, XTT assay; format: cell-based, HIV-2 CBL20 strain in human CEM-SS cells; conditions: acetate salts
# Protocol: (§3) The human lymphocytic target cell lines, CEM-SS and MT-2, used in the antiviral assays were maintained in RPMI 1640 medium (Gibco, Grand Island, N.Y.) without phenol red and supplemented with 5% fetal bovine serum (FBS) (Gibco), 2 mM L-glutamine, and 50 μg/ml gentamicin (Gibco) (complete medium). Exponentially-growing CEM-SS or MT-2 cells were pelleted and resuspended at a concentration of 2.0×10^5 cells/ml in complete medium. For the HIV-1 studies, the Haitian variant of HIV, HTLV-IIIRFwas used. For the HIV-2 studies, the NIH-DZ strain or the CBL20 strain was used. Frozen virus stock solutions were thawed immediately before use and resuspended in complete medium to yield 1.2×10 ^5 SFU/ml.
# The appropriate amounts of the pure compounds for anti-HIV evaluations were dissolved in 100% dimethylsulfoxide (DMSO) and then diluted in complete medium to the desired initial concentration (with final DMSO content not exceeding 1%). All serial dilutions of the michellamines A, B, and C, reagent additions, and plate-to-plate transfers were carried out using an automated Biomek 1000 Workstation (Beckman Instruments, Palo Alto, Calif.). Each compound was diluted initially in complete medium and added to a single column of a 96-well microtiter plate (dilution plate). The Biomek was used to perform eight serial dilutions of each drug and to transfer a 100 μl aliquot of each dilution to the test plate. Uninfected CEM-SS or MT-2 cells were plated at a density of 1×10^4 cells in 50 μl of complete medium. Diluted HIV-1 or HIV-2 virus was then added to appropriate wells in a volume of 50 μl to yield a multiplicity of infection of 0.6. Appropriate cell, virus, and drug controls were used, with the final volume in each well being 200 μl. […] Subsequently, aliquots of cell-free supernatant were removed from each well using the Biomek, and analyzed for reverse transcriptase activity, p24 antigen production, and synthesis of infectious virions (see further below). A 25 μl sample of 0.002% (w/v) Fluoricon reference particles (590/620 nm) (Baxter Healthcare Corp.) was added to each well of the test plate to be used as an internal standard for fluorescence assays. […]
# (§4) As an estimate of cellular viability, the metabolic reduction of the tetrazolium salt, XTT, to the soluble, colored formazan was carried out by adding 50 μl of the XTT/PMS solution to each well of the original test plate and incubating for 4 hrs at 37° C. After incubation the plates were covered with adhesive plate sealers (Dynatech, Alexandria, Va.) and shaken, and optical densities were determined using a V-max photometer (Molecular Devices, Inc., Menlo Park, Calif.) at a test wavelength of 450 nm. […]
# HIV-1 [4] = conditions: cultured human lymphoblastoid cell lines; Yarchoan et al. 1986; cited from earlier work
# HIV-2 [5] = assay: Anti-HIV-2 (NIH-DZ strain) activity in MT-2 cells, XTT assay, 6 days; format: cell-based, HIV-2 NIH-DZ strain in human MT-2 cells; conditions: for antiviral effects against HIV-2: free bases or HBr salts, NIH-DZ strain, MT-2 cells
# Protocol: as §3
# The appropriate amounts of the pure compounds for anti-HIV evaluations were dissolved in 100% dimethylsulfoxide (DMSO) and then diluted in complete medium to the desired initial concentration (with final DMSO content not exceeding 1%). All serial dilutions of the michellamines A, B, and C, reagent additions, and plate-to-plate transfers were carried out using an automated Biomek 1000 Workstation (Beckman Instruments, Palo Alto, Calif.). […] Subsequently, aliquots of cell-free supernatant were removed from each well using the Biomek, and analyzed for reverse transcriptase activity, p24 antigen production, and synthesis of infectious virions (see further below). A 25 μl sample of 0.002% (w/v) Fluoricon reference particles (590/620 nm) (Baxter Healthcare Corp.) was added to each well of the test plate to be used as an internal standard for fluorescence assays. […]
# as §4
# HIV = format: cell-based
# Protocol: A portion (2.107 g) of this extract was suspended/dissolved in 330 ml of 5% aqueous HCl and extracted with four 100 ml aliquots of CHCl3.
# The crude alkaloid fraction, obtained by acid-base partitioning, was subjected to centrifugal partition chromatography (CHCl3 --CH3 OH--0.5% HBr/H2 O, 5:5:3), and elution with the lower phase gave four fractions.
smiles,measurement,setting,value
COc1cc(C)cc2c(-c3c(O)cc(O)c4c3C[C@@H](C)N[C@@H]4C)cc(-c3cc(-c4c(O)cc(O)c5c4C[C@@H](C)N[C@@H]5C)c4cc(C)cc(OC)c4c3O)c(O)c12 [Michellamine C],spontaneous interconversion,[1],failed to show evidence of spontaneous interconversion
same,IC50,uninfected CEM-SS cells; listed as C,193 µM
same,EC50,HIV-1 [2]; listed as C,12.8 µM
same,EC50,HIV-2 [3]; listed as michellamine C,< 2 µM
Cc1cn([C@H]2C[C@H](N=[N+]=[N-])[C@@H](CO)O2)c(=O)[nH]c1=O [AZT],in vitro cytoprotective effects against HIV-1,HIV-1 [4],in vitro cytoprotective effects against the HIV-1
COc1cc(C)cc2c(-c3c(O)cc(O)c4c3C[C@@H](C)N[C@@H]4C)cc(-c3cc(-c4c(O)cc(O)c5c4C[C@@H](C)N[C@@H]5C)c4cc(C)cc(OC)c4c3O)c(O)c12 [Michellamine B],EC (essentially complete protection),"HIV-2 [5]; Human immunodeficiency virus 2, MT2, 144 h, read-out: concentration giving essentially complete protection against killing effects of HIV-2 upon MT-2 cells",30 to 100 µM
same,antiviral effects against HIV-2,HIV-2 [5]; listed as michellamine B,showed antiviral effects; also recorded: consistently was more potent than michellamine A against HIV-2
same,IC50,uninfected CEM-SS cells; listed as B,> 240 µM
same,EC50,HIV-1 [2]; listed as B,9.6 µM
same,EC50,HIV-2 [3]; listed as michellamine B,< 2 µM
COc1cc(C)cc2c(-c3c(O)cc(O)c4c3C[C@@H](C)N[C@@H]4C)cc(-c3cc(-c4c(O)cc(O)c5c4C[C@@H](C)N[C@@H]5C)c4cc(C)cc(OC)c4c3O)c(O)c12 [Michellamine A],antiviral effects against HIV-2,HIV-2 [5]; listed as michellamine A,showed antiviral effects
same,anti-HIV activity of isolated compounds,HIV,active
same,IC50,"uninfected CEM-SS cells; Homo sapiens, CEM-SS",168 µM
same,EC50,"HIV-1 [2]; Human immunodeficiency virus 1, CEM-SS",9.6 µM
same,EC50,HIV-2 [3]; listed as michellamine A,~10 µM
same,"anti-HIV-2 potency, comparison in words",HIV-2 [3]; listed as michellamine A,somewhat less potent
